# Values quoted from earlier work in US10959985B1, “Pharmaceutical compositions including carvedilol and methods of using the same” (ECI Pharmaceuticals, LLC, priority 2019, dated 2021).
# Where two headings read alike, the source gives them in different places.
compound,measurement,setting,value
"COc1ccccc1OCCNCC(O)COc1cccc2[nH]c3ccccc3c12 (racemic) [Carvedilol, (±) 1-(9H-carbazol-4-yloxy)-3-[[2(2-methoxyphenoxy)ethyl]amino]-2-propanol]",intraperitoneal LD50,mice; intraperitoneal,364 mg/kg
same,oral LDLO,mice; oral,8 gm/kg
same,oral TDLO,humans; men,5.357 mg/kg
same,oral TDLO,humans; women,12 mg/kg
same,intraperitoneal LD50,rats; intraperitoneal,769 mg/kg
same,oral LDLO,rats; oral,8 gm/kg
same,solubility in water,,practically insoluble
